Among the data in the METLIN SMRT retention time set (Domingo-Almenara et al. 2019) are RP-LC retention time values, retold here.

This series in a line: gradient 5% acetonitrile 3 min, to 50% in 2 min, to 85% in 15 min, held 3 min, 100 µL/min. The conditions noted are these: column: Zorbax Extend-C18 2.1 x 50 mm; eluents: water / acetonitrile, 0.1% formic acid. In a few lines: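 Retention times of pure standards were taken from adduct peaks that were selected by computer and manually inspected. Over 3 months, mixtures of ~100 molecules were run by HPLC–quadrupole time-of-flight mass spectrometry in positive and negative ionization mode. The Zorbax Extend-C18 column (2.1 × 50 mm, 1.8 μm) ran at 100 μL/min in water and acetonitrile, each containing 0.1% formic acid, with 40 μL dead volume and 900 μL dwell volume.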
`O=C(Nc1ccc(Cl)cc1)C(=O)c1cn(CC(=O)N2CCCC2)c2ccccc12` displayed an RP-LC retention time of 1020 s. `Cc1ccc(C2Cn3nnc(-c4nc(-c5ccc(C(F)(F)F)cc5)no4)c3CO2)c(C)c1` (stereo not drawn) registered an RP-LC retention time of 1300 s. For `COc1ccc(-c2nn(-c3ccccc3)cc2C#N)cc1[N+](=O)[O-]`, the RP-LC retention time was 1010 s. Then `COc1ccc(OC)c(NC(=O)N2CCC(n3cnc4cccnc43)CC2)c1`, with 649 s. Then `CCNc1cc(C)nc(N2CCN(C(=O)C(C)(C)C)CC2)n1`, with 632 s; and `CN(C)c1ccc(C(CNC(=O)C(=O)Nc2ccc(F)c(Cl)c2)N2CCCC2)cc1` (stereo not drawn), with 613 s. With `O=C(NC1(c2nc(-c3cccnc3)no2)CCCCC1)c1cc(C2CC2)[nH]n1`, the RP-LC retention time was 700 s.

`O=C(Cn1c(-c2cccs2)cc2cc(Cl)ccc21)NCCCN1CCOCC1` displayed an RP-LC retention time of 726 s. Then `Cc1ccc(-n2cc3c(N4CCCC(C(=O)NCCC5=CCCCC5)C4)ncnc3n2)cc1` (stereo not drawn), with 792 s; and `O=C(NC1CC1)[C@@H]1C[C@H](Oc2cccnc2)CN1C(=O)C1CC=CC1`, with 567 s; and `Cc1nc(-c2cccc(NC(=O)CCn3nnc4ccccc4c3=O)c2)cs1`, with 739 s.

`CCOc1ccc(-n2nnc(-c3nc(-c4ccc(C(C)C)cc4)cs3)c2N)cc1` had an RP-LC retention time of 1350 s. As for `CC(C)(Oc1ccc(Cl)cc1)C(=O)NCC1(O)CCc2ccccc21` (stereo not drawn), the RP-LC retention time was 736 s. Turning to `O=C(CN1C(=O)CCc2cc(Br)ccc21)N1CCN(c2ccccn2)CC1`, the RP-LC retention time was 621 s.

`Cc1sc(-c2noc(C3CCC3)n2)cc1S(=O)(=O)N1CCC(C(=O)N2CCOCC2)CC1` displayed an RP-LC retention time of 948 s. Then `Cc1cc(Cl)ccc1NC(=O)N1CCCC1c1nnc2n1CCN(C)CC2` (stereo not drawn), with 584 s. Then `CCc1ccccc1NC(=O)N1CCCC1c1nc(-c2ccc(OC)cc2)no1` (stereo not drawn), with 976 s; and `COc1ccc(C)cc1NC(=O)N1CCN(Cc2nc3cc(C)ccc3o2)CC1`, with 761 s. Compound `CC1CCCN(C(=O)c2nc(-c3ccnc(N4CCCC4)c3)no2)C1` (stereo not drawn) gave an RP-LC retention time of 682 s. For the compound `CCCCCc1ccc(/C=C/C(=O)Nc2ccccc2C(=O)O)cc1`, the RP-LC retention time is 1230 s. The compound `O=C(N[C@@H]1CN(Cc2ccsc2)CC[C@@H]1CO)c1ccccc1` yielded an RP-LC retention time of 591 s. `CCCNC(=O)C1CCN(c2ccc(SCC(=O)Nc3cc(C)cc(C)c3)nn2)CC1` yielded an RP-LC retention time of 685 s. Regarding `Cc1cccc(S(=O)(=O)N2CCC(C)(C(=O)NCc3ccccc3)CC2)c1`, the RP-LC retention time is 935 s. Then `Cc1cc(C)n(CCN(C(=O)c2ccc([N+](=O)[O-])s2)c2nc3ccccc3s2)n1`, with 1020 s; and `CCn1cc(S(=O)(=O)Nc2ccc(C)cc2C)c2cccnc21`, with 900 s; and `O=C(NCCC1=CCCCC1)C1CCCN(C(=O)c2cc(-c3ccccn3)n[nH]2)C1` (stereo not drawn), with 723 s.

Turning to `CCn1cc(C)c(C(=O)O)c1CC(=O)N(C)Cc1ccccc1`, the RP-LC retention time amounted to 772 s.

For the compound `Cc1ccc(C(=O)Nc2nc(-c3ccc4c(c3)NC(=O)C(C)O4)c(C)s2)cc1` (stereo not drawn), the RP-LC retention time came to 1010 s. `CN(CCc1noc(COc2ccccc2F)n1)C(=O)Nc1ccc(F)c(Cl)c1` yielded an RP-LC retention time of 966 s. Take `CC(C)c1ccc(NC(=O)C2CC(=O)N(CCc3c[nH]c4ccc(F)cc34)C2)cc1` (stereo not drawn): the RP-LC retention time is 929 s. Take `COCCNC(=O)Nc1nnc(-c2ccccc2Cl)o1`: the RP-LC retention time came out at 647 s. Then `CC1=C(c2ccccc2)S(=O)(=O)N=C1N1CCCN(C(=O)Nc2ccccc2)CC1`, with 669 s; and `COc1ccc(-c2oc3c(CC=C(C)C)c(OC4O[C@H](CO)[C@@H](O)[C@H](O)[C@H]4O)cc(O)c3c(=O)c2OC2O[C@@H](C)[C@H](O)[C@@H](O)[C@H]2O)cc1` (stereo partly drawn), with 669 s. The compound `CNC(=O)C1CCCN(C(=O)Nc2ccc(NC(=O)Nc3ccccc3)cc2)C1` (stereo not drawn) came in with an RP-LC retention time of 663 s. Turning to `Cc1ccc(-c2noc(-c3ccccc3S(=O)(=O)N3CCCCC3)n2)cc1`, the RP-LC retention time was found to be 1210 s. With `CCCNC(=O)C1CCN(c2ccc(SCC(=O)Nc3cc(Cl)ccc3C)nn2)CC1`, the RP-LC retention time was 690 s. Then `Cc1ncc2c(n1)C[C@@H]1CC[C@H]2N1S(=O)(=O)c1ccc(F)cc1`, with 720 s. With `CCCNC(=O)N1CCCCCC1CN1CCC(C)CC1` (stereo not drawn), the RP-LC retention time turned out to be 624 s. The compound `CC[C@H](C)NC(=O)Cc1nnc(-c2cccc(C)c2)o1` registered an RP-LC retention time of 767 s. Then `Cc1ccc(C)c(N2CCN(C(=O)c3[nH]c(C)c(S(=O)(=O)N4CCOCC4)c3C)CC2)c1`, with 928 s; and `Cc1cc(N2CCCCCC2)n2nc(CN3CCCCC3C)nc2n1` (stereo not drawn), with 609 s; and `O=C(c1nnn2c1COC(c1ccccc1)C2)N1CCN(C(=O)c2cccc3[nH]ccc23)CC1` (stereo not drawn), with 792 s. Then `Cc1cccc(-c2ncccc2CNS(=O)(=O)c2cccc(C)c2)c1`, with 721 s; and `O=C(c1ccncc1)N1CCCN(c2cc(-c3ccc4c(c3)OCO4)[nH]n2)CC1`, with 605 s. Then `COc1ccc2c(c1)C1(CCN(C(=O)Cc3ccc(C)cc3)C1)C(=O)N2C` (stereo not drawn), with 854 s; and `O=C(NC1CCCC1)N1CCc2nc(-c3ccccc3)ncc2C1`, with 822 s; and `CCOC(=O)c1c(C)n(C)c2ccc(OCC(O)CN3CCOCC3)cc12` (stereo not drawn), with 630 s. The compound `Cc1cccc(-c2noc(C3CCCN3S(=O)(=O)c3ccc(F)c(Cl)c3)n2)c1` (stereo not drawn) gave an RP-LC retention time of 1220 s. Then `CC(C)n1cnc(S(=O)(=O)N2CCC(C(=O)NC3CCCCCC3)CC2)c1`, with 736 s. Regarding `O=C(c1nnc(-c2ccc(S(=O)(=O)N3CCCC3)cc2)o1)N1CCCC1`, the RP-LC retention time was found to be 764 s. `Cc1cccc(NC(=O)C2CCCCN2S(=O)(=O)c2cccs2)n1` (stereo not drawn) registered an RP-LC retention time of 807 s.

The compound `CCOC(=O)c1c(C)[nH]c(C(=O)N2CCC(CC(=O)NCc3ccc(F)cc3)CC2)c1C` yielded an RP-LC retention time of 780 s. Take `CCCNC(=O)C1CCCN(c2nc3ncn(CC(=O)Nc4cccc(Cl)c4)c(=O)c3s2)C1` (stereo not drawn): the RP-LC retention time was 731 s.

In the case of `Cc1cccc(S(=O)(=O)N2CCc3nc[nH]c3C2)c1`, the RP-LC retention time is 590 s. Then `O=C(Nc1cccc(F)c1)N1CCC2(C1)C(=O)Nc1ccccc12` (stereo not drawn), with 730 s; and `COc1cccc(CNC(=O)c2nnc(-c3ccc(S(=O)(=O)N(C)C)cc3)o2)c1`, with 827 s. In the case of `Cc1ccc(-c2noc(Cc3nnc(-c4ccc(C)c(C)c4)o3)n2)cc1C`, the RP-LC retention time came out at 1230 s. Compound `Cc1cc(-c2nnc(-c3ccc(F)cc3)o2)c(C)n1CC(=O)NCc1cc(F)cc(F)c1` displayed an RP-LC retention time of 992 s. Then `O=C1COc2ccc(-c3csc(NC(=O)c4ccc(Cl)cc4)n3)cc2N1`, with 899 s; and `Cc1ccc(-n2nc(C)c3sc(N(C)CC(=O)N4CCC5(CC4)OCCO5)nc32)cc1`, with 932 s; and `CCOCCCNC(=O)Cn1c(=O)c2cccn2c2ccccc21`, with 689 s.

Compound `CSc1nc2ccc3nc(NC(=O)c4c(F)cccc4F)sc3c2s1` showed an RP-LC retention time of 990 s. For the compound `FC(F)(F)c1nnc2c(Sc3ccccc3)nc3ccc(Cl)cc3n12`, the RP-LC retention time was determined as 1190 s. Then `CCOC(=O)c1ccc(NC(=O)c2c(OC)cc(=O)n3c2CCCC3)cc1`, with 718 s; and `O=C(CCCN1CCC2(CC1)C(=O)N(Cc1cccc(F)c1)CN2c1ccccc1)c1ccc(F)cc1`, with 981 s. Then `CCOc1ccc(C(=O)N2CCCCC2c2nncn2C)cc1OCC` (stereo not drawn), with 646 s; and `COc1cccc(N2C(=O)Nc3ccccc3C2(O)C(=O)N2CCN(c3ccccn3)CC2)c1` (stereo not drawn), with 603 s. Then `COc1ccc(-c2n[nH]c3c2C(c2cccnc2)N(c2ccc(Br)cc2)C3=O)cc1` (stereo not drawn), with 768 s; and `CCOc1ccc(C(=O)Nc2cnn(-c3ncncc3N3CCC(C)CC3)c2)cc1`, with 929 s.

In turn, `O=C1CC(c2noc(Cc3ccc(F)cc3)n2)CN1c1ccc(F)cc1` (stereo not drawn) gave an RP-LC retention time of 933 s. Then `CCOC(=O)Cn1c(CNC(=O)c2ccco2)nc2ccccc21`, with 618 s; and `COCc1cn(C2CN(C(=O)Cc3c[nH]c4ccccc34)C2)nn1`, with 634 s; and `CN1CCN(S(=O)(=O)c2ccc3nn(Cc4c(F)cccc4Cl)c(=O)n3c2)CC1`, with 642 s. Then `CCC(C(=O)NCc1cccnc1)n1c2ccccc2c2cnn(C)c(=O)c21` (stereo not drawn), with 615 s. Then `O=C(Nc1ccc(S(=O)(=O)N2CCCCC2c2cccnc2)cc1)C1CCCCC1` (stereo not drawn), with 654 s; and `CCNc1cc(N2CCCC(CCC(=O)Nc3ccc(OC)cc3OC)C2)ncn1` (stereo not drawn), with 671 s. `CCCOc1ccc(-c2noc(Cc3nc(-c4cccc(OC)c4)cs3)n2)cc1` returned an RP-LC retention time of 1360 s. Then `CCCNC(=O)Cn1c(=O)c2cnc(-c3ccc(Cl)cc3)nc2n(C)c1=O`, with 909 s.
